# Data reported in article PMC12205066, “Lysosomal EGFR acts as a Rheb-GEF independent of its kinase activity to activate mTORC1” (Cell Research, 2025).
# Target: T1, Rheb (Homo sapiens, UniProt Q15382)
# T1 construct: GST-tagged Rheb amino acids 1–169
# Test: RP-HPLC of nucleotide released from purified denatured GST-Rheb
# Type: binding
# T1 sequence (Q15382 1-169): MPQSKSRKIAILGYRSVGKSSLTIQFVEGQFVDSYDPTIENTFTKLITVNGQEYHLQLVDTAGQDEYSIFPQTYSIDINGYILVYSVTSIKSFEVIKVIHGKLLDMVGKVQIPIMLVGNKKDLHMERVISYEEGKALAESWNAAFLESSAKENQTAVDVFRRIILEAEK
smiles,measurement,value
Nc1nc2c(ncn2[C@@H]2O[C@H](CO[P@](=O)(O)OP(=O)(O)O)[C@@H](O)[C@H]2O)c(=O)[nH]1 [GDP],RP-HPLC of nucleotide released from purified denatured GST-Rheb,"glutathione-S-transferase (GST)-tagged Rheb, which had a substantial GDP-bound fraction"
